# In the supplement of paper PMC4314810:
# ± gives the standard deviation of the averaged measurements.
# Test system: MCF7
# Assay: HRG-induced Akt activation (dPAkt = log2 pAkt/Akt HRG-stimulated minus log2 pAkt/Akt basal) (log2 ratio difference); higher = stronger HRG-induced Akt(T308) phosphorylation
# Conditions: miRNA mimic concentration 10 nM; time after transfection 72 h; heregulin 10 ng/ml; stimulation time 1 h
# How it was run: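 MCF7 cells ([…], 96-well plates) were transfected with a library of 879 miRNA mimics at 10 nM final using Lipofectamine RNAiMax, in two biological replicates. After 72 h, cells were stimulated with 10 ng/ml heregulin-beta1 for 1 h or left unstimulated. They were fixed with 4% PFA, and phospho-Akt(T308) and total Akt were read by In-Cell Western on an Odyssey. Signals were corrected for column-wise fixation decay, and HRG-induced Akt activation is log2(pAkt/Akt) stimulated minus unstimulated, averaged over replicates.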
row,Sequence,HRG-induced Akt activation (log2)
1,UAGUAGACCGUAUAGCGUACG,1.5 ± 0.21
2,CAAAACGUGAGGCGCUGCUAU,1.27 ± 0.087
3,UGUAAACAUCCUACACUCAGCU,0.757 ± 0.3
4,UGGUUUACCGUCCCACAUACAU,0.811 ± 0.33
5,GCUAGUCCUGACUCAGCCAGU,2.19 ± 0.26
6,CAAAACUGGCAAUUACUUUUGC,1.5 ± 0.052
7,AAACAUUCGCGGUGCACUUCUU,1.84 ± 0.035
8,AAAAGCUGGGUUGAGAGGGU,1.89 ± 0.17
9,AUAUAUGAUGACUUAGCUUUU,2.03 ± 0.027
10,CCCAGUGUUUAGACUAUCUGUUC,1.58 ± 0.18
11,AUCGCUGCGGUUGCGAGCGCUGU,1.63 ± 0.063
12,UUUCCAUAGGUGAUGAGUCAC,1.09 ± 0.68
13,UGAGGUAGUAAGUUGUAUUGUU,1.6 ± 0.43
14,AGGCAGUGUAGUUAGCUGAUUGC,2.22 ± 0.041
15,CUAAUAGUAUCUACCACAAUAAA,1.84 ± 0.24
16,CUGUGCGUGUGACAGCGGCUGA,0.692 ± 0.043
17,GUGGCUGCACUCACUUCCUUC,1.16 ± 0.076
18,AAAAUGGUUCCCUUUAGAGUGU,1.21 ± 0.31
19,UGUAACAGCAACUCCAUGUGGA,0.984 ± 0.7
20,UGCGGGGCUAGGGCUAACAGCA,2.49 ± 0.31
21,CUACAAAGGGAAGCCCUUUC,1.62 ± 0.21
22,UGGGCGUAUCUGUAUGCUA,1.83 ± 0.1
23,AAUCCUUGGAACCUAGGUGUGAGU,2.15 ± 0.11
24,AUGGGUGAAUUUGUAGAAGGAU,1.81 ± 0.12

row,Sequence,HRG-induced Akt activation (log2)
1,UAGGACACAUGGUCUACUUCU,1.04 ± 0.19
2,UGGCAGGGAGGCUGGGAGGGG,1.63 ± 0.15
3,UGAGCUAAAUGUGUGCUGGGA,1.26 ± 0.69
4,UAAUGCCCCUAAAAAUCCUUAU,0.932 ± 0.16
5,UACGUAGAUAUAUAUGUAUUUU,1.5 ± 0.16
6,UGUCAGUUUGUCAAAUACCCCA,1.28 ± 0.73
7,AACUGGCCUACAAAGUCCCAGU,2.21 ± 0.14
8,CUUCCUCGUCUGUCUGCCCC,1.02 ± 0.055
9,UGAGGUAGUAGUUUGUGCUGUU,1.12 ± 0.026
10,UCUGCUCAUACCCCAUGGUUUCU,1.15 ± 0.24
11,ACUUUAACAUGGAGGCACUUGC,1.41 ± 0.029
12,AAUAUAACACAGAUGGCCUGU,1.36 ± 0.25
13,UGAGGUAGGAGGUUGUAUAGUU,1.11 ± 0.083
14,UAGCAGCACAUAAUGGUUUGUG,1.98 ± 0.18
15,UGGGUGGUCUGGAGAUUUGUGC,1.58 ± 0.13
16,ACCUUGCCUUGCUGCCCGGGCC,1.06 ± 0.23
17,AACUGUUUGCAGAGGAAACUGA,1.816 ± 0.014
18,GGGGUUCCUGGGGAUGGGAUUU,1.21 ± 0.3
19,AGCUGGUGUUGUGAAUCAGGCCG,1.87 ± 0.075
20,UCAGUGCAUGACAGAACUUGG,1.09 ± 0.14
21,GUUCUCCCAACGUAAGCCCAGC,1.62 ± 0.15
22,AACAUUCAACGCUGUCGGUGAGU,1.71 ± 0.13
23,AGGUGGUCCGUGGCGCGUUCGC,2.93 ± 0.32
24,UAUGUAAUAUGGUCCACAUCUU,2.01 ± 0.2

row,Sequence,HRG-induced Akt activation (log2)
1,ACAGCAGGCACAGACAGGCAGU,1.75 ± 0.28
2,CGUCAACACUUGCUGGUUUCCU,2.32 ± 0.12
3,CAUAAAGUAGAAAGCACUACU,1.54 ± 0.062
4,AUAAUACAUGGUUAACCUCUUU,1.2 ± 0.064
5,AACGCACUUCCCUUUAGAGUGU,1.23 ± 0.16
6,CCUCCUGCCCUCCUUGCUGU,2.4 ± 0.096
7,AGCUCGGUCUGAGGCCCCUCAGU,0.753 ± 0.54
8,CUCAUCUGCAAAGAAGUAAGUG,1.5 ± 0.58
9,AAAAGUAAUUGCGGUUUUUGCC,1.53 ± 0.17
10,AUAAGACGAACAAAAGGUUUGU,1.75 ± 0.072
11,AAGGAGCUCACAGUCUAUUGAG,1.97 ± 0.2
12,AAAGGAUUCUGCUGUCGGUCCCACU,1.63 ± 0.2
13,GUGAACGGGCGCCAUCCCGAGG,1.9231 ± 0.00011
14,UUGGGACAUACUUAUGCUAAA,1.28 ± 0.2
15,CCUCUGGGCCCUUCCUCCAG,0.844 ± 0.012
16,UUUGUUCGUUCGGCUCGCGUGA,1.23 ± 0.27
17,UAUUGCACUUGUCCCGGCCUGU,1.3 ± 0.12
18,AAAGUGCUUCCUUUUAGAGGG,0.928 ± 0.12
19,UUUAGGAUAAGCUUGACUUUUG,1.37 ± 0.39
20,AACCCGUAGAUCCGAUCUUGUG,0.985 ± 0.36
21,GAUGAGCUCAUUGUAAUAUGAG,1.71 ± 0.24
22,UUCACAAGGAGGUGUCAUUUAU,1.442 ± 0.013
23,GCUAUUUCACGACACCAGGGUU,1.693 ± 0.0017
24,UGUGCGCAGGGAGACCUCUCCC,0.835 ± 0.095

row,Sequence,HRG-induced Akt activation (log2)
1,UUCUCCAAAAGAAAGCACUUUCUG,2.57 ± 0.12
2,ACUCCAUUUGUUUUGAUGAUGGA,1.19 ± 0.29
3,UGGAUUUUUGGAUCAGGGA,2.21 ± 0.15
4,GCUGGUUUCAUAUGGUGGUUUAGA,1.82 ± 0.049
5,GUCCGCUCGGCGGUGGCCCA,1.34 ± 0.29
6,AUAAGACGAGCAAAAAGCUUGU,1.73 ± 0.05
7,AAGCAUUCUUUCAUUGGUUGG,1.4 ± 0.014
8,AGGGCCCCCCCUCAAUCCUGU,1.95 ± 0.39
9,UAAAGAGCCCUGUGGAGACA,1.58 ± 0.083
10,GAAGGCGCUUCCCUUUGGAGU,1.41 ± 0.095
11,CGGCGGGGACGGCGAUUGGUC,2.14 ± 0.33
12,GGCAGGUUCUCACCCUCUCUAGG,2.11 ± 0.13
13,GGUGCAGUGCUGCAUCUCUGGU,1.28 ± 0.0016
14,UAUUGCACUCGUCCCGGCCUCC,1.33 ± 0.043
15,GAAGUGCUUCGAUUUUGGGGUGU,1.12 ± 0.22
16,ACCAGGAGGCUGAGGCCCCU,1.68 ± 0.1
17,GUCAUACACGGCUCUCCUCUCU,0.922 ± 0.81
18,CAAAGCGCUUCCCUUUGGAGC,1.259 ± 0.0069
19,CUCCAGAGGGAUGCACUUUCU,1.83 ± 0.3
20,AAAGACAUAGGAUAGAGUCACCUC,1.9 ± 0.072
21,UGUCUACUACUGGAGACACUGG,2.12 ± 0.15
22,AAUCACUAACCACACGGCCAGG,1.79 ± 0.65
23,AUAUAAUACAACCUGCUAAGUG,0.999 ± 0.15
24,UGUCUCUGCUGGGGUUUCU,1.89 ± 0.58

row,Sequence,HRG-induced Akt activation (log2)
1,ACUGGGGGCUUUCGGGCUCUGCGU,1.6 ± 0.11
2,UGAGACCUCUGGGUUCUGAGCU,1.95 ± 0.023
3,GUGAGUCUCUAAGAAAAGAGGA,1.56 ± 0.38
4,UGAGCCCUGUCCUCCCGCAG,2.24 ± 0.29
5,CGGCCCGGGCUGCUGCUGUUCCU,1.09 ± 0.4
6,GACUGACACCUCUUUGGGUGAA,1.49 ± 0.18
7,UUCCCUUUGUCAUCCUUCGCCU,1 ± 0.3
8,UAACAGUCUCCAGUCACGGCC,1.5 ± 0.11
9,UGUGAGGUUGGCAUUGUUGUCU,2.02 ± 0.55
10,UGAGAUGAAGCACUGUAGCUC,1.18 ± 0.22
11,UCACAAUGCUGACACUCAAACUGCUGAC,1.45 ± 0.48
12,UCGUGUCUUGUGUUGCAGCCGG,1.14 ± 0.13
13,CAUUAUUACUUUUGGUACGCG,1.58 ± 0.02
14,AGGUUACCCGAGCAACUUUGCAU,0.732 ± 0.16
15,UCGGGGAUCAUCAUGUCACGAGA,1.93 ± 0.17
16,AAACUCUACUUGUCCUUCUGAGU,0.945 ± 0.39
17,CUGGCCCUCUCUGCCCUUCCGU,1.18 ± 0.4
18,GCAGGAACUUGUGAGUCUCCU,1.8 ± 0.32
19,ACUCGGCGUGGCGUCGGUCGUG,2.34 ± 0.17
20,AAGCCUGCCCGGCUCCUCGGG,1.81 ± 0.26
21,AAAAGCUGGGUUGAGAGGGCAA,1.61 ± 0.092
22,AGCUGUCUGAAAAUGUCUU,1.08 ± 0.3
23,UAGCUUAUCAGACUGAUGUUGA,1.73 ± 0.11
24,GGCGGAGGGAAGUAGGUCCGUUGGU,1.52 ± 0.058

row,Sequence,HRG-induced Akt activation (log2)
1,AUAAAGCUAGAUAACCGAAAGU,2.04 ± 0.33
2,GCCUGCUGGGGUGGAACCUGGU,1.81 ± 0.22
3,UCCAGUGCCCUCCUCUCC,1.131 ± 0.0093
4,UAGCAGCACAGAAAUAUUGGC,1.42 ± 0.76
5,GCGAGGACCCCUCGGGGUCUGAC,1.05 ± 0.48
6,AGGGGGAAAGUUCUAUAGUCC,1.2 ± 0.07
7,GUGAAUUACCGAAGGGCCAUAA,1.03 ± 0.12
8,AGGUUGUCCGUGGUGAGUUCGCA,1.02 ± 0.18
9,UGCUAUGCCAACAUAUUGCCAU,1.72 ± 0.27
10,UCUCACACAGAAAUCGCACCCGU,1.92 ± 0.12
11,CAAAGCGCUCCCCUUUAGAGGU,1.02 ± 0.045
12,UGGGUUUACGUUGGGAGAACU,1.44 ± 0.096
13,UCCCUGUUCGGGCGCCA,1.65 ± 0.52
14,ACGCCCUUCCCCCCCUUCUUCA,1.22 ± 0.47
15,GGCUAGCAACAGCGCUUACCU,0.933 ± 0.081
16,UAUACAAGGGCAAGCUCUCUGU,1.05 ± 0.18
17,UGGUAGACUAUGGAACGUAGG,0.953 ± 0.95
18,GCAGCAGAGAAUAGGACUACGUC,1.7 ± 0.032
19,CAAAGUGCUCAUAGUGCAGGUAG,1.34 ± 0.39
20,UCACCAGCCCUGUGUUCCCUAG,1.69 ± 0.061
